Eleven molecules from patent publication US20260176289A1, “SMALL MOLECULE INHIBITORS OF KRAS PROTEINS” (Merck Sharp & Dohme LLC, priority 2022, published 2026) can be followed below.

One assay addresses KRAS-G12D (Homo sapiens, UniProt P01116, G12D). The experiment in a line: SOS-catalyzed nucleotide exchange assay (Procedure A, TR-FRET), KRAS-G12D. Format: biochemical. The note with it: nucleotide exchange, read-out: KRAS G12D GNE IC50. The method in brief: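 Signal ratio (520/495 nm, excitation 340 nm) reports Bodipy-GDP retention on biotinylated RAS after SOS-catalyzed exchange with 3 mM GTP. SOS was 40 nM, except 160 nM for G12V. Room-temperature exchange lasted 60 min (90 min for G12V), following a 60 min compound preincubation.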

The target of assay [1] is KRAS-G12C (C51S/C80L/C118S) (Homo sapiens, UniProt P01116, C118S/C51S/C80L/G12C). The assay is described as follows: SOS-catalyzed nucleotide exchange assay (Procedure A, TR-FRET), KRAS-G12C. The format is biochemical. The note with it: nucleotide exchange, Procedure A; read-out: KRAS G12C GNE IC50. The method in brief: (§1)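 TR-FRET 520/495 nm ratio read after SOS-driven exchange of Bodipy-GDP for unlabeled GTP (3 mM) on biotinylated RAS bound to Tb-streptavidin. There was a 60 min compound preincubation, RT. Final RAS/SOS and reaction times: G12C 3 nM/40 nM; WT 1 nM/40 nM; NRAS 1.25 nM/40 nM, each 60 min. G12V was 1.25 nM/160 nM, 90 min.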
KRAS-G12C (C51S/C80L/C118S), sequence (P01116 with tags, fused parts or gaps isoform P01116-2 G12C/C51S/C80L/C118S): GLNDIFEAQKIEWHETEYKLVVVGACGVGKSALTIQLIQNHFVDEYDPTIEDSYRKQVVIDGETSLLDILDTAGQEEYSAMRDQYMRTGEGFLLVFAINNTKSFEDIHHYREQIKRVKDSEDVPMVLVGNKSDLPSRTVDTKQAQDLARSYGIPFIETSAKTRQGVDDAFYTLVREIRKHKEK
On the technique in general: TR-FRET usually uses a lanthanide donor and a delayed reading to cut background.

For another assay, the target named is KRAS-G12V (Homo sapiens, UniProt P01116, G12V). The experiment in a line: SOS-catalyzed nucleotide exchange assay (Procedure A, TR-FRET), KRAS-G12V. The format is biochemical. The conditions noted are these: nucleotide exchange, read-out: KRAS G12V GNE IC50. In a few lines: as §1
KRAS-G12V, sequence (P01116 with tags, fused parts or gaps isoform P01116-2 G12V): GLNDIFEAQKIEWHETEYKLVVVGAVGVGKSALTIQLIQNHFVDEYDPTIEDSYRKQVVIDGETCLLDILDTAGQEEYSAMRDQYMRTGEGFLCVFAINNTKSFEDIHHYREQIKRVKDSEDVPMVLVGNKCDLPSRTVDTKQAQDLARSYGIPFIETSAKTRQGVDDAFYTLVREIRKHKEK
The target of another assay is KRAS-WT (Homo sapiens, UniProt P01116). The assay is described as follows: SOS-catalyzed nucleotide exchange assay (Procedure A, TR-FRET), KRAS-WT. The format is biochemical. The conditions noted are these: nucleotide exchange, read-out: KRAS WT GNE IC50. In a few lines:
as §1

A further assay has as its target KRAS-G13D (Homo sapiens, UniProt P01116, G13D). The assay is described as follows: SOS-catalyzed nucleotide exchange assay (Procedure A, TR-FRET), KRAS-G13D. Format: biochemical. The conditions noted are these: nucleotide exchange, Procedure A; read-out: KRAS G13D GNE IC50.
In another assay the test system is PANC08.13 cells. The assay is described as follows: Cellular phospho-ERK assay, PANC08.13 cells (homozygous KRAS-G12D). Format: cell-based. The conditions noted are these: Homo sapiens, read-out: PANC-08.13 pERK IC50. The method, then: Procedure for Cellular Phospho-ERK Assay in KRAS Wild Type and Mutant (G12D, G12V) Cell Lines
MKN-1 cells (JCRB JCRB0252) containing amplified wild-type KRAS, were cultured in growth medium that contains RPMI 1640-GlutaMAX™-I (ThermoFisher Scientific 61870) containing 10% heat inactivated fetal bovine serum (ThermoFisher Scientific 10091148), 1 mM sodium pyruvate and 10 mM HEPES. PANC08.13 cells (ATCC® CRL-2551™), containing homozygous KRAS-G12D activating mutation, were cultured in growth medium made of RPMI1640-GlutaMAX™-I (ThermoFisher Scientific 61870) containing 15% heat inactivated fetal bovine serum (ThermoFisher Scientific 10091148)). AsPC-1 cells (ATCC® CRL-1682™), containing homozygous KRAS-G12D activating mutation, were cultured in T150 flask in growth medium (RPMI medium 1640-GlutaMAX™-I (ThermoFisher Scientific 61870) containing 10% fetal bovine serum (ThermoFisher Scientific 10091148)). SW620 cells (ATCC® […]), containing homozygous KRAS-G12V activating mutation, were cultured in growth medium that contains RPMI 1640-GlutaMAX™-I (ThermoFisher Scientific 61870) containing 10% heat inactivated fetal bovine serum (ThermoFisher Scientific 10091148).
Cells for the assay were harvested in growth medium after TrypLE (ThermoFisher scientific 12604021) digestion and were seeded in a 384-well collagen coated cell culture plate (Corning 356702) at a density of 10,000-15,000 cells/20 μL/well, and incubated at 37° C., 5% CO2 overnight. The compound (with 10 mM stock concentration) dose-response titrations were prepared [30 μM final ERK detection assay concentration and 1:3 dilutions, 10-point dose response] and appropriate amounts (270 nL) of test compounds were dispensed in a 384-well intermediate plate using an Echo 550 liquid handler. 30 μL/well of RPMI medium 1640-GlutaMAX™—I was added to the intermediate plate and the contents of the intermediate plate (10 μL/well) were then transferred to the 384-well collagen coated cell culture plate, which was incubated at 37° C., 5% CO2 for 2 hours. After removal of medium from the collagen coated cell culture plate, cells were lysed in lysis buffer from Alpha SureFire® Ultra™ Multiplex p-ERK and total ERK assay kit (PerkinElmer MPSU-PTERK) containing Halt™ Protease and Phosphatase inhibitor cocktail (ThermoFisher Scientific 78446) at room temperature with constant shaking at 300 rpm for 30 minutes. The cell lysates were then transferred to an OptiPlate-384 plate (PerkinElmer 6005620), and the phosphorylation of ERK (p-ERK) and total ERK levels were detected by Alpha SureFire® Ultra™ Multiplex p-EEK kit and total ERK assay kit (PerkinElmer MPSU-PTERK) following the manufacturer's protocol. Assay plates were read on a En Vision Multimode Plate Reader (PerkinElmer), and the ratio of p-ERK vs. total ERK in each well was used as the final readout. Dose response curves were analyzed using a 4-parameter logistic model to calculate IC50 values using Spotfire software.

The mark [2] stands for this setting: PANC-08-13, 2 hours compound incubation.

SMILES strings stand for the structures. Where two headings read alike, the source gives them in different places.

For orientation: IC50 means the concentration that gives 50% inhibition.

KRAS-G12D, sequence (P01116 with tags, fused parts or gaps isoform P01116-2 G12D): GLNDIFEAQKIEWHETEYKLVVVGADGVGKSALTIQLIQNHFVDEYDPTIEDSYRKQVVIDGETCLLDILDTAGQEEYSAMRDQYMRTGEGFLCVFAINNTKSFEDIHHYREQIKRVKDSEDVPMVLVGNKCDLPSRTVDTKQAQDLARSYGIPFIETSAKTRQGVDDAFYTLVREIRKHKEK
KRAS-G13D, sequence (P01116 with tags, fused parts or gaps isoform P01116-2 G13D): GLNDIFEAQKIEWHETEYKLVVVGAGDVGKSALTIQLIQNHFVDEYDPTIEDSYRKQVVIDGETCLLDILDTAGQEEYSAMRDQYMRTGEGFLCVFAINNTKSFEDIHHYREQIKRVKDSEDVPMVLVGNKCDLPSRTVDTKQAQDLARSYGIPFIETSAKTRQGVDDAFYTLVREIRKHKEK
KRAS-WT, sequence (P01116 with tags, fused parts or gaps isoform P01116-2): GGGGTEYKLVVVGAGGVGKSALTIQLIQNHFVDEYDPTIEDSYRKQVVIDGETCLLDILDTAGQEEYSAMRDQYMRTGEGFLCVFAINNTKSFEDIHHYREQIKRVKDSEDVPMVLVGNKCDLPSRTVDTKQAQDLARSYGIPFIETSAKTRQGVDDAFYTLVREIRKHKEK

For the molecule `Cc1cc2[nH]nc(C#N)c2c(-c2nccc3c2sc2nc(OC[C@@]45CCCN4C[C@H](F)C5)nc(N4CCOC[C@@](C)(O)C4)c23)c1C(F)(F)F` [Ex-150, 4-(2-(((2R,7aS)-2-fluorotetrahydro-1H-pyrrolizin-7a(5H)-yl)methoxy)-4-((S)-6-hydroxy-6-methyl-1,4-oxazepan-4-yl)pyrido[4′,3′:4,5]thieno[2,3-d]pyrimidin-8-yl)-6-methyl-5-(trifluoromethyl)-1H-indazole-3-carbonitrile], the IC50 on KRAS-G12D worked out at 1210 nM; in assay [1], 743 nM; on KRAS-G12V, 2120 nM; at KRAS-WT, 1870 nM; at KRAS-G13D, 1430 nM; in the assay on PANC08.13 cells (setting [2]) it was 974 nM.
Turning to `Cc1nc2[nH]ncc2c(-c2nccc3c4c(N5CCOC[C@@](C)(O)C5)nc(OC[C@@]56CCCN5C[C@H](F)C6)nc4n(C)c23)c1C(F)(F)F` [Ex-14, (6S)-4-(2-(((2R,7aS)-2-fluorotetrahydro-1H-pyrrolizin-7a(5H)-yl)methoxy)-9-methyl-8-(6-methyl-5-(trifluoromethyl)-1H-pyrazolo[3,4-b]pyridin-4-yl)-9H-pyrido[4′,3′:4,5]pyrrolo[2,3-d]pyrimidin-4-yl)-6-methyl-1,4-oxazepan-6-ol], the IC50 is 276 nM at KRAS-G12D; 233 nM in assay [1]; 404 nM at KRAS-G12V; 681 nM at KRAS-WT; 543 nM at KRAS-G13D; 561 nM with PANC08.13 cells (PANC-08-13, KRAS-G12D, 2 hours).
For the molecule `Cc1cc2[nH]nc(C#N)c2c(-c2nccc3c4c(N5CCOC[C@@](C)(O)C5)nc(OC[C@@]56CCCN5C[C@H](F)C6)nc4n(C)c23)c1C(F)F` (single isomer, unassigned) [Ex-9], the IC50 on KRAS-G12D came to 616 nM; in assay [1], 566 nM; on KRAS-G12V, 575 nM; at KRAS-WT, 1350 nM; at KRAS-G13D, 560 nM; in the assay on PANC08.13 cells (PANC-08-13, KRAS-G12D, 2 hours), 1690 nM.
In the case of `Cc1n[nH]c2cc(Cl)c(C(F)F)c(-c3nccc4c5c(N6CCOC[C@@](C)(O)C6)nc(OC[C@@]67CCCN6C[C@H](F)C7)nc5n(C)c34)c12` (single isomer, unassigned) [Ex-13], the IC50 at KRAS-G12D was 3660 nM; in assay [1] it was 1480 nM; on KRAS-G12V it was 1660 nM; at KRAS-WT, 2750 nM; on KRAS-G13D it was 4860 nM; in the assay with PANC08.13 cells (PANC-08-13, KRAS-G12D, 2 hours), 4300 nM.
In the case of `Cc1cc2[nH]ncc2c(-c2cncc3c2sc2nc(OC[C@@]45CCCN4C[C@H](F)C5)nc(N4CCOC[C@@](C)(O)C4)c23)c1C(F)(F)F` [Ex-273, (6S)-4-(2-(((2R,7aS)-2-fluorotetrahydro-1H-pyrrolizin-7a(5H)-yl)methoxy)-8-(6-methyl-5-(trifluoromethyl)-1H-indazol-4-yl)pyrido[3′,4′:4,5]thieno[2,3-d]pyrimidin-4-yl)-6-methyl-1,4-oxazepan-6-ol], the IC50 was 360 nM on KRAS-G12D; 456 nM in assay [1]; 574 nM at KRAS-G12V; 1230 nM at KRAS-WT; 1100 nM at KRAS-G13D; 562 nM with PANC08.13 cells (PANC-08-13, KRAS-G12D, 2 hours).
In the case of `Cn1c2nc(OC[C@@]34CCCN3C[C@H](F)C4)nc(N3CCOC[C@@](C)(O)C3)c2c2ccnc(-c3c(C(F)F)c(Cl)cc4[nH]nc(C#N)c34)c21` (single isomer, unassigned) [Ex-12], the IC50 worked out at 2150 nM at KRAS-G12D; 584 nM in assay [1]; 2960 nM on KRAS-G12V; 5930 nM on KRAS-WT; 2650 nM at KRAS-G13D; 6060 nM in the assay on PANC08.13 cells (PANC-08-13, KRAS-G12D, 2 hours).
`Cc1cc2[nH]ncc2c(-c2nccc3c2sc2nc(OC[C@@]45CCCN4C[C@H](F)C5)nc(N4CCOC(CO)C4)c23)c1C(F)(F)F` (stereo partly drawn) [Ex-180, (4-(2-(((2R,7aS)-2-fluoro-tetrahydro-1H-pyrrolizin-7a(5H)-yl)methoxy)-8-(6-methyl-5-(trifluorometh-yl)-1H-indazol-4-yl)pyrido [4′,3′:4,5]thieno[2,3-d]pyr-imidin-4-yl)morpholin-2-yl)methanol]: the IC50 came out at 2270 nM at KRAS-G12D; 78 nM in assay [1]; 428 nM at KRAS-G12V; 725 nM on KRAS-WT; 813 nM on KRAS-G13D; 3930 nM in the assay with PANC08.13 cells (setting [2]).
With `Cc1cc2c3c(N4CCOC[C@@](C)(O)C4)nc(OC[C@@]45CCCN4C[C@H](F)C5)nc3n(C)c2c(-c2c(C(F)(F)F)c(C)cc3[nH]ncc23)n1` (single isomer, unassigned) [Ex-28], the IC50 at KRAS-G12D turned out to be 629 nM; in assay [1], 275 nM; at KRAS-G12V, 934 nM; on KRAS-WT it was 973 nM; at KRAS-G13D it was 541 nM; with PANC08.13 cells (PANC-08-13, KRAS-G12D, 2 hours), 2040 nM.
`C[C@@]1(O)COCCN(c2nc(OC[C@@]34CCCN3C[C@H](F)C4)nc3sc4c(-c5c(C(F)F)c(Cl)cc6[nH]ncc56)nccc4c23)C1` [Ex-133, (6S)-4-(8-(6-chloro-5-(difluoromethyl)-1H-indazol-4-yl)-2-(((2R,7aS)-2-fluoro-tetrahydro-1H-pyr-rolizin-7a(5H)-yl)-methoxy)pyrido [4′,3′:4,5]thieno [2,3-d]pyrimidin-4-yl)-6-methyl-1,4-oxazepan-6-ol]: the IC50 on KRAS-G12D was found to be 120 nM; in assay [1], 47.1 nM; at KRAS-G12V, 130 nM; on KRAS-WT, 250 nM; on KRAS-G13D, 110 nM; with PANC08.13 cells (setting [2]), 279 nM.
For the molecule `C#Cc1c(F)ccc2cc(N)nc(-c3nccc4c5c(N6CCOC[C@@](C)(O)C6)nc(OC[C@@]67CCCN6C[C@H](F)C7)nc5n(C)c34)c12` [Ex-17, (S)-4-(8-(3-amino-8-ethynyl-7-fluoroisoquinolin-1-yl)-2-(((2R,7aS)-2-fluorotetrahydro-1H-pyrrolizin-7a(5H)-yl)methoxy)-9-methyl-9H-pyrido[4′,3′:4,5]pyrrolo[2,3-d]pyrimidin-4-yl)-6-methyl-1,4-oxazepan-6-ol], the IC50 on KRAS-G12D worked out at 1420 nM; in assay [1] it was 300 nM; at KRAS-G12V, 1020 nM; on KRAS-WT it was 1810 nM; on KRAS-G13D it was 592 nM; in the assay with PANC08.13 cells (PANC-08-13, KRAS-G12D, 2 hours) it was 3750 nM.
In the case of `Cc1cc2[nH]ncc2c(-c2nccc3c2oc2nc(OC[C@]4(CN(C)C)CC4(F)F)nc(N4CCOC[C@@](C)(O)C4)c23)c1C(F)(F)F` [Ex-291, (6S)-4-(2-(((R)-1-((dimethylamino)methyl)-2.2-difluorocyclopropyl)meth-oxy)-8-(6-methyl-5-(trifluoromethyl)-1H-indazol-4-yl)pyrido[4′,3′:4,5]furo[2,3-d]pyrimidin-4-yl)-6-methyl-1,4-oxazepan-6-ol], the IC50 at KRAS-G12D was 153 nM; in assay [1] it was 116 nM; at KRAS-G12V it was 207 nM; on KRAS-WT, 377 nM; at KRAS-G13D it was 210 nM; in the assay on PANC08.13 cells (PANC-08-13, KRAS-G12D, 2 hours), 306 nM.
